Measured values published in PubChem BioAssay AID743097 (Vanderbilt Specialized Chemistry Center, 2013).
Activity calls are given as the source filed them. The rule behind the calls is not given here.

Each compound was assayed against Muscarinic acetylcholine receptor M1 (Homo sapiens) (UniProt P11229) (assay: M1 receptor positive allosteric modulation, selectivity assay for M5 PAM discovery project, cell-based, human M1 (AID 743097)). Details: CHO-K1 hM1, Fluo-4 calcium flux, ACh EC20 potentiation.
Chain of Muscarinic acetylcholine receptor M1 (Homo sapiens) (P11229 whole entry, looked up): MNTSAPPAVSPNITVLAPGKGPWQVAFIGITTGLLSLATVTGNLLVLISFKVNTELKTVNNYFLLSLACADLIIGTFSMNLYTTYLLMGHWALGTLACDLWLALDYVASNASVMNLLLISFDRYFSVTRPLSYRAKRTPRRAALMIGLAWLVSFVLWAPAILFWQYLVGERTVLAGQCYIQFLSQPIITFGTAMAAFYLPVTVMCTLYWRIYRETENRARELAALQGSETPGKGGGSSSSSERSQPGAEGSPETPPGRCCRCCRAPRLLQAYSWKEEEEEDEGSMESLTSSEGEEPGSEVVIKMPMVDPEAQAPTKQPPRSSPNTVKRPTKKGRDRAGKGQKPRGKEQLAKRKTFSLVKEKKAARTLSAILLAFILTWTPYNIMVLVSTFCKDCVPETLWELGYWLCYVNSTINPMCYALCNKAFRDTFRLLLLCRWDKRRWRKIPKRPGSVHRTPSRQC

| Compound | EC50 [µM] |
| --- | --- |
| CCN(Cc1ccccc1C(F)(F)F)C(=O)C1(F)CCN(S(=O)(=O)c2ccc3[nH]ncc3c2)CC1 | 4.84 |
| CCN(Cc1ccccc1Cl)C(=O)C1CCN(S(=O)(=O)c2ccc3[nH]ncc3c2)CC1 | 2.52 |
| CCN(Cc1ccccc1C(F)(F)F)C(=O)C1CCN(S(=O)(=O)c2ccc3[nH]ncc3c2)CC1 | 6.99 |

Other lines, results leading:

| EC50 [µM] | Compound |
| --- | --- |
| 3.97 | CCN(Cc1ccccc1Cl)C(=O)C1CCN(S(=O)(=O)c2ccc3cn[nH]c3c2)CC1 |
| 5.28 | CCN(C(=O)C1CCN(S(=O)(=O)c2ccc3[nH]ncc3c2)CC1)[C@H](C)c1ccccc1 |

Same assay, conditions: CHO-K1 hM1, Fluo-4 calcium flux, ACh EC20 potentiation; at 30 µM (top of the series)

| % of ACh max response | Compound |
| --- | --- |
| inactive | CCN(C(=O)C1CCN(S(=O)(=O)c2ccc(OC)cc2)CC1)[C@H](C)c1ccccc1 |
